Several values for one entry are separate records, joined by “and”; a condition that tells them apart may be missing. Identical values can stand only once. Inconclusive results and toxic doses are left out.
Test system: CD2F1 mice, L1210 leukemia ip, survival T/C
Test: NCI In Vivo Anticancer Drug Screen. Data for tumor model L1210 Leukemia (intraperitoneal) in CD2F1 (CDF1) mice
Details: higher = longer survival
Summary of the method: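 Vehicle-treated tumor-bearing mice served as controls (C) for compound-treated mice (T). Reported figure is T divided by C.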

[1] = endpoint: mean survival time, dose: 100.0 mg/kg/injection, schedule: Q04DX003 (ip), vehicle: saline with Tween-80
[2] = endpoint: mean survival time, dose: 200.0 mg/kg/injection, schedule: Q04DX003 (ip), vehicle: saline with Tween-80
[3] = endpoint: mean survival time, dose: 400.0 mg/kg/injection, schedule: Q04DX003 (ip), vehicle: saline with Tween-80
[4] = endpoint: mean survival time, dose: 100.0 mg/kg/injection, schedule: Q01DX009 (ip), vehicle: saline with Tween-80
[5] = endpoint: mean survival time, dose: 200.0 mg/kg/injection, schedule: Q01DX009 (ip), vehicle: saline with Tween-80
[6] = endpoint: mean survival time, dose: 400.0 mg/kg/injection, schedule: Q01DX009 (ip), vehicle: saline with Tween-80
[7] = endpoint: mean survival time, dose: 100.0 mg/kg/injection, schedule: Q01DX001 (ip), vehicle: saline with Tween-80
[8] = endpoint: mean survival time, dose: 200.0 mg/kg/injection, schedule: Q01DX001 (ip), vehicle: saline with Tween-80
[9] = endpoint: mean survival time, dose: 400.0 mg/kg/injection, schedule: Q01DX001 (ip), vehicle: saline with Tween-80
[10] = endpoint: mean survival time, dose: 100.0 mg/kg/injection, schedule: Q04DX002 (ip), vehicle: Klucel (hydroxypropylcellulose) (HPC)
[11] = endpoint: mean survival time, dose: 200.0 mg/kg/injection, schedule: Q04DX002 (ip), vehicle: Klucel (hydroxypropylcellulose) (HPC)

## CC(=O)NCCc1ccc2c(c1)[nH]c1ccccc12
endpoint: mean survival time, dose: 100.0 mg/kg/injection, schedule: Q01DX001 (ip), vehicle: saline
  T/C: 101 % of control
endpoint: mean survival time, dose: 200.0 mg/kg/injection, schedule: Q01DX001 (ip), vehicle: saline
  T/C: 100 % of control
endpoint: mean survival time, dose: 400.0 mg/kg/injection, schedule: Q01DX001 (ip), vehicle: saline
  T/C: 93 % of control

## O=C(O)Cc1c(Cl)n(-c2ccccc2)c2ccccc12
endpoint: mean survival time, dose: 25.0 mg/kg/injection, schedule: Q04DX003 (ip), vehicle: saline with Tween-80
  T/C: 96 % of control
endpoint: mean survival time, dose: 50.0 mg/kg/injection, schedule: Q04DX003 (ip), vehicle: saline with Tween-80
  T/C: 102 % of control
[1]
  T/C: 104 % of control

## Nc1ncnc2c1[nH]c(=S)n2C1OC(CO)C(O)C1O (centres undefined)
endpoint: mean survival time, dose: 100.0 mg/kg/injection, schedule: Q04DX002 (ip), vehicle: saline with Tween-80
  T/C: 107 % of control
endpoint: mean survival time, dose: 200.0 mg/kg/injection, schedule: Q04DX002 (ip), vehicle: saline with Tween-80
  T/C: 103 % of control
endpoint: mean survival time, dose: 400.0 mg/kg/injection, schedule: Q04DX002 (ip), vehicle: saline with Tween-80
  T/C: 100 % of control

## Cc1nc2ccc(N)cc2[nH]1
endpoint: mean survival time, dose: 50.0 mg/kg/injection, schedule: Q01DX009 (ip), vehicle: saline
  T/C: 95 % of control
endpoint: mean survival time, dose: 100.0 mg/kg/injection, schedule: Q01DX009 (ip), vehicle: saline
  T/C: 113 % of control
endpoint: mean survival time, dose: 200.0 mg/kg/injection, schedule: Q01DX009 (ip), vehicle: saline
  T/C: 95 % of control

## O=C(Nc1cccc2ccccc12)[C@H]1C[C@H]2C=C[C@@H]1C2
endpoint: mean survival time, dose: 37.5 mg/kg/injection, schedule: Q01DX009 (ip), vehicle: saline with Tween-80
  T/C: 101 % of control
endpoint: mean survival time, dose: 75.0 mg/kg/injection, schedule: Q01DX009 (ip), vehicle: saline with Tween-80
  T/C: 95 % of control
endpoint: mean survival time, dose: 150.0 mg/kg/injection, schedule: Q01DX009 (ip), vehicle: saline with Tween-80
  T/C: 95 % of control
endpoint: mean survival time, dose: 300.0 mg/kg/injection, schedule: Q01DX009 (ip), vehicle: saline with Tween-80
  T/C: 97 % of control

## CCCCCC(/C=C/C1C=CC(=O)C1C/C=C/CCCC(=O)OC)OC(C)=O (centres undefined)
[1]
  T/C: 95 % of control
[2]
  T/C: 100 % of control
[3]
  T/C: 95 % of control

## CCN(CC)CCN1CC2C3C=CC(C3)C2C1 (centres undefined)
endpoint: mean survival time, dose: 25.0 mg/kg/injection, schedule: Q01DX009 (ip), vehicle: saline with Tween-80
  T/C: 97 % of control
endpoint: mean survival time, dose: 50.0 mg/kg/injection, schedule: Q01DX009 (ip), vehicle: saline with Tween-80
  T/C: 100 % of control
[4]
  T/C: 102 % of control and 104 % of control

## COc1cc2c(cc1OC)C(Cc1ccc3cc(OC)c(OC)cc3c1)=NCC2
[4]
  T/C: 93 % of control
[1]
  T/C: 87 % of control
[5]
  T/C: 101 % of control
[2]
  T/C: 89 % of control
[6]
  T/C: 110 % of control
[3]
  T/C: 101 % of control

## CN(C)c1ccc(NS(=O)(=O)c2ccccc2)cc1
[7]
  T/C: 103 % of control
[8]
  T/C: 98 % of control
[9]
  T/C: 97 % of control

## CN(C)N=C1CCC2(CC1)c1ccccc1-c1ccccc12
[8]
  T/C: 88 % of control
[9]
  T/C: 87 % of control

## CCC(=O)Nc1cccc(OC(=O)NC(C)(C)CC(C)(C)C)c1
[7]
  T/C: 98 % of control
[8]
  T/C: 98 % of control
[9]
  T/C: 100 % of control

## O=C(CC(c1ccc(Cl)cc1)P(=O)(c1ccccc1)c1ccccc1)c1ccccc1 (centres undefined)
[4]
  T/C: 90 % of control
[5]
  T/C: 98 % of control
[6]
  T/C: 97 % of control

## O=C1CCC(=O)N1CC(O)COc1ccc(Cl)cc1 (centres undefined)
[1]
  T/C: 95 % of control
[2]
  T/C: 98 % of control
[3]
  T/C: 95 % of control

## CN(C)Cc1c(-c2ccccc2)c(CN(C)C)n2ccccc12
endpoint: mean survival time, dose: 75.0 mg/kg/injection, schedule: Q01DX001 (ip), vehicle: saline
  T/C: 97 % of control

## CCN(c1ccccc1)S(=O)(=O)CS(=O)(=O)N(CC)c1ccccc1
endpoint: mean survival time, dose: 100.0 mg/kg/injection, schedule: Q01DX001 (ip), vehicle: Klucel (hydroxypropylcellulose) (HPC)
  T/C: 104 % of control
endpoint: mean survival time, dose: 200.0 mg/kg/injection, schedule: Q01DX001 (ip), vehicle: Klucel (hydroxypropylcellulose) (HPC)
  T/C: 96 % of control
endpoint: mean survival time, dose: 400.0 mg/kg/injection, schedule: Q01DX001 (ip), vehicle: Klucel (hydroxypropylcellulose) (HPC)
  T/C: 93 % of control

## OCc1ccc2c(n1)COC(c1ccccc1)O2 (centres undefined)
[10]
  T/C: 102 % of control
[11]
  T/C: 94 % of control
endpoint: mean survival time, dose: 400.0 mg/kg/injection, schedule: Q04DX002 (ip), vehicle: Klucel (hydroxypropylcellulose) (HPC)
  T/C: 94 % of control

## CC(=O)Oc1ccc2c3c(cccc13)CC2
[1]
  T/C: 98 % of control
[2]
  T/C: 98 % of control
[3]
  T/C: 98 % of control

## O=C1N(CC2CO2)CCN1CC1CO1 (centres undefined)
endpoint: median survival time, dose: 12.5 mg/kg/injection, schedule: Q01DX009 (ip), vehicle: saline
  T/C: 123 % of control
endpoint: median survival time, dose: 50.0 mg/kg/injection, schedule: Q01DX009 (ip), vehicle: saline
  T/C: 157 % of control
endpoint: median survival time, dose: 100.0 mg/kg/injection, schedule: Q01DX009 (ip), vehicle: saline
  T/C: 174 % of control
endpoint: median survival time, dose: 200.0 mg/kg/injection, schedule: Q01DX009 (ip), vehicle: saline
  T/C: 277 % of control
endpoint: median survival time, dose: 400.0 mg/kg/injection, schedule: Q01DX009 (ip), vehicle: saline
  T/C: 86 % of control

## O=C(Nc1ccccc1O)/C(Cl)=C/Cl
[4]
  T/C: 104 % of control

## CCSC(=S)S
endpoint: mean survival time, dose: 75.0 mg/kg/injection, schedule: Q04DX003 (ip), vehicle: saline
  T/C: 104 % of control
endpoint: mean survival time, dose: 150.0 mg/kg/injection, schedule: Q04DX003 (ip), vehicle: saline
  T/C: 98 % of control
endpoint: mean survival time, dose: 300.0 mg/kg/injection, schedule: Q04DX003 (ip), vehicle: saline
  T/C: 104 % of control

## Cc1cc2c(=O)[nH]cnc2[nH]1
endpoint: median survival time, dose: 12.5 mg/kg/injection, schedule: Q01DX005 (ip), vehicle: saline with Tween-80
  T/C: 102 % of control
endpoint: median survival time, dose: 25.0 mg/kg/injection, schedule: Q01DX005 (ip), vehicle: saline with Tween-80
  T/C: 100 % of control
endpoint: median survival time, dose: 50.0 mg/kg/injection, schedule: Q01DX005 (ip), vehicle: saline with Tween-80
  T/C: 101 % of control
endpoint: median survival time, dose: 50.0 mg/kg/injection, schedule: Q01DX005 (ip), vehicle: saline
  T/C: 102 % of control
endpoint: median survival time, dose: 100.0 mg/kg/injection, schedule: Q01DX005 (ip), vehicle: saline
  T/C: 90 % of control

## C[n+]1ccccc1SC12CC3CC(CC(C3)C1)C2
endpoint: mean survival time, dose: 2.5 mg/kg/injection, schedule: Q01DX009 (ip), vehicle: Klucel (hydroxypropylcellulose) (HPC)
  T/C: 98 % of control
endpoint: mean survival time, dose: 5.0 mg/kg/injection, schedule: Q01DX009 (ip), vehicle: Klucel (hydroxypropylcellulose) (HPC)
  T/C: 98 % of control
endpoint: mean survival time, dose: 10.0 mg/kg/injection, schedule: Q01DX009 (ip), vehicle: Klucel (hydroxypropylcellulose) (HPC)
  T/C: 103 % of control

## CN1CCc2[nH]c3ccccc3c2C1
endpoint: mean survival time, dose: 75.0 mg/kg/injection, schedule: Q01DX001 (ip), vehicle: other
  T/C: 93 % of control
[10]
  T/C: 95 % of control
endpoint: mean survival time, dose: 150.0 mg/kg/injection, schedule: Q01DX001 (ip), vehicle: other
  T/C: 93 % of control
[11]
  T/C: 103 % of control

## O=[N+]([O-])c1cccc(Cc2nc3ccccc3nc2-c2ccccc2)c1
[7]
  T/C: 94 % of control
[9]
  T/C: 91 % of control

## c1ccc(C[N+]23CCN(CC2)CC3)cc1
endpoint: mean survival time, dose: 12.5 mg/kg/injection, schedule: Q04DX003 (ip), vehicle: saline
  T/C: 98 % of control
endpoint: mean survival time, dose: 25.0 mg/kg/injection, schedule: Q04DX003 (ip), vehicle: saline
  T/C: 98 % of control
endpoint: mean survival time, dose: 50.0 mg/kg/injection, schedule: Q04DX003 (ip), vehicle: saline
  T/C: 101 % of control

## Cc1ccc[n+](CCCCCCCC[n+]2cccc(C)c2)c1
endpoint: mean survival time, dose: 0.5 mg/kg/injection, schedule: Q04DX003 (ip), vehicle: saline
  T/C: 100 % of control
endpoint: mean survival time, dose: 1.0 mg/kg/injection, schedule: Q04DX003 (ip), vehicle: saline
  T/C: 103 % of control
endpoint: mean survival time, dose: 2.0 mg/kg/injection, schedule: Q04DX003 (ip), vehicle: saline
  T/C: 106 % of control

## Cc1ccccc1C(C)(C#N)Nc1ccccc1 (centres undefined)
[1]
  T/C: 101 % of control
[2]
  T/C: 103 % of control
[3]
  T/C: 104 % of control

## O=S(=O)(CC(Br)C(Br)CO)c1ccccc1 (centres undefined)
endpoint: median survival time, dose: 25.0 mg/kg/injection, schedule: Q04DX003 (ip), vehicle: saline with Tween-80
  T/C: 111 % of control
endpoint: median survival time, dose: 50.0 mg/kg/injection, schedule: Q04DX003 (ip), vehicle: saline with Tween-80
  T/C: 122 % of control
endpoint: median survival time, dose: 100.0 mg/kg/injection, schedule: Q04DX003 (ip), vehicle: saline with Tween-80
  T/C: 111 % of control
endpoint: median survival time, dose: 200.0 mg/kg/injection, schedule: Q04DX003 (ip), vehicle: saline with Tween-80
  T/C: 100 % of control

## O=C(NC(O)C(Cl)(Cl)Cl)C(Cl)(Cl)Cl (centres undefined)
[4]
  T/C: 89 % of control
[1]
  T/C: 104 % of control
[5]
  T/C: 100 % of control
[2]
  T/C: 105 % of control
[6]
  T/C: 107 % of control
[3]
  T/C: 104 % of control

Reference: PubChem BioAssay AID256 (DTP/NCI, 2004)
